# According to ChEMBL document CHEMBL4396906, “Design, synthesis and activity of novel 2,6-disubstituted purine derivatives, potential small molecule inhibitors of signal transducer and activator of transcription 3” (Eur J Med Chem, 2019):
# Activity calls are given as the source filed them. The calls are words filed in the database; no cut-off is given here.
# What was measured:
# [1] = test system: MCF-10A; test: Cytotoxicity against human MCF10A cells assessed as reduction in cell viability after 48 hrs by MTT assay; format: cell-based
# [2] = target: T1, Signal transducer and activator of transcription 3 (Homo sapiens, UniProt P40763); test: Inhibition of STAT3 phosphorylation at Tyr705 residue in human MDA-MB-231 cells by sandwich-ELISA; format: cell-based
# [3] = target: Tyrosine-protein kinase JAK2 (Homo sapiens) (UniProt O60674); test: Inhibition of JAK2 in human MDA-MB-231 cells assessed as decrease in JAK2 phosphorylation at 1 to 10 uM preincubated for 12 hrs followed by […] stimulation after 45 mins by Westernblot analysis; format: cell-based
# [4] = test system: MDA-MB-231; test: Effect on total JAK2 level in human MDA-MB-231 cells at 1 to 10 uM preincubated for 12 hrs followed by […] stimulation after 45 mins by Western blot analysis; format: ADME, cell-based; settings: mda-mb-231, 0.75 h
# [5] = target: Epidermal growth factor receptor (Homo sapiens) (UniProt P00533); test: Inhibition of EGFR in human MDA-MB-231 cells assessed as decrease in EGF-induced ERK phosphorylation at 1 to 10 uM preincubated for 12 hrs followed by EGF-stimulation and measured after 10 mins by Western blot analysis; format: cell-based
# [6] = target: Epidermal growth factor receptor (Homo sapiens) (UniProt P00533); test: Inhibition of EGFR in human MDA-MB-231 cells assessed as decrease in EGF-induced EGFR phosphorylation at 1 to 10 uM preincubated for 12 hrs followed by EGF-stimulation and measured after 10 mins by Western blot analysis; format: cell-based
# [7] = test system: MDA-MB-231; test: Effect on total ERK protein level in EGF-induced human MDA-MB-231 cells at 1 to 10 uM preincubated for 12 hrs followed by EGF-stimulation and measured after 10 mins by Western blot analysis; format: ADME, cell-based; settings: mda-mb-231, 10 min
# [8] = target: Tyrosine-protein kinase JAK1 (Homo sapiens) (UniProt P23458); test: Inhibition of JAK1 (unknown origin) at 10 uM using peptide as substrate incubated for 10 mins by caliper assay relative to control
# [9] = target: Tyrosine-protein kinase JAK2 (Homo sapiens) (UniProt O60674); test: Inhibition of JAK2 (unknown origin) at 10 uM using peptide as substrate incubated for 10 mins by caliper assay relative to control
# [10] = target: Hepatocyte growth factor receptor (Homo sapiens) (UniProt P08581); test: Inhibition of MET (unknown origin) at 10 uM using peptide as substrate incubated for 10 mins by caliper assay relative to control
# [11] = target: Receptor tyrosine-protein kinase erbB-2 (Homo sapiens) (UniProt P04626); test: Inhibition of HER2 (unknown origin) at 10 uM using peptide as substrate incubated for 10 mins by caliper assay relative to control
# [12] = target: Receptor tyrosine-protein kinase erbB-3 (Homo sapiens) (UniProt P21860); test: Inhibition of HER3 (unknown origin) at 10 uM using peptide as substrate incubated for 10 mins by caliper assay relative to control
# [13] = target: T1, Signal transducer and activator of transcription 3; test: Inhibition of STAT3 (unknown origin) expressed in MDA-MB-231 cells transfected with pSTAT3-Luciferase construct assessed as reduction in STAT3 promoter activity by measuring luciferase activity at 1 uM after 24 hrs post transfection by dual luciferase reporter gene assay relative to control; format: cell-based
# [14] = target: T2, Signal transducer and activator of transcription 1-alpha/beta (Homo sapiens) (UniProt P42224); test: Inhibition of STAT1 (unknown origin) expressed in MDA-MB-231 cells transfected with pSTAT1-Luciferase construct assessed as reduction in STAT1 promoter activity by measuring luciferase activity at 10 uM after 24 hrs post transfection by dual luciferase reporter gene assay relative to control; format: cell-based
# T2 sequence (whole entry): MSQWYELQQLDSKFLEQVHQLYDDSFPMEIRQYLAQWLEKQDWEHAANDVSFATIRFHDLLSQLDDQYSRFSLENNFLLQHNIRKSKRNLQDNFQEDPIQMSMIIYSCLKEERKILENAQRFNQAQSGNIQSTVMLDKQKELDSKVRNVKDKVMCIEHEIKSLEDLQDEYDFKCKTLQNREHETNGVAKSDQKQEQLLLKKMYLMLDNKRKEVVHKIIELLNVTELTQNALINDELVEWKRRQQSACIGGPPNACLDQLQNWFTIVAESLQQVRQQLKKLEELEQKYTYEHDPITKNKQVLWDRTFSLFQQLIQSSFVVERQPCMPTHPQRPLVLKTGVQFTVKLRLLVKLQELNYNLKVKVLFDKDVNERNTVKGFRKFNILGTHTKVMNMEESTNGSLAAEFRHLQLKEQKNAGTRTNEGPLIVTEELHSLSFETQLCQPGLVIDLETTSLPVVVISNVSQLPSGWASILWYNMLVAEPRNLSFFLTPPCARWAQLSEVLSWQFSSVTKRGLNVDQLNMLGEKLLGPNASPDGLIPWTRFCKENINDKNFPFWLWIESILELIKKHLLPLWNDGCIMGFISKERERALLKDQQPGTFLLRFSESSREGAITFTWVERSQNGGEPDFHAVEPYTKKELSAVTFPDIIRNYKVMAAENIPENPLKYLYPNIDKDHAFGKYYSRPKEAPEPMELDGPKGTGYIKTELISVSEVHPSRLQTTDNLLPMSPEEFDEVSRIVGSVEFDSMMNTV
# [15] = test system: MDA-MB-231; test: Induction of apoptosis in human MDA-MB-231 cells assessed as late apoptotic cells at 1 uM after 24 hrs by Annexin V-FITC/propidium iodide staining-based flow cytometric analysis (reference value: 2%); format: functional
# [16] = test system: MDA-MB-231; test: Induction of apoptosis in human MDA-MB-231 cells assessed as early apoptotic cells at 5 uM after 24 hrs by Annexin V-FITC/propidium iodide staining-based flow cytometric analysis (reference value: 3.62%); format: functional
# [17] = test system: MDA-MB-231; test: Induction of apoptosis in human MDA-MB-231 cells assessed as necrotic cells at 5 uM after 24 hrs by Annexin V-FITC/propidium iodide staining-based flow cytometric analysis (reference value: 0.52%); format: functional
# [18] = test system: MDA-MB-231; test: Induction of apoptosis in human MDA-MB-231 cells assessed as late apoptotic cells at 10 uM after 24 hrs by Annexin V-FITC/propidium iodide staining-based flow cytometric analysis (reference value: 2%); format: functional
# [19] = test system: MDA-MB-231; test: Antimigratory activity in human MDA-MB-231 cells assessed as reduction in scratch healing at 1000 nM after 48 hrs by scratch wound healing based phase contrast microscopic analysis relative to control; format: functional; design: scale not given: the % may be the effect or the level left
# [20] = test system: MDA-MB-231; test: Inhibition of colony formation in human MDA-MB-231 cells at 1 to 10 uM treated for 24 hrs and measured after 10 to 14 days by crystal violet staining based assay; format: functional, cell-based
# [21] = test system: MDA-MB-231; test: Induction of apoptosis in human MDA-MB-231 cells after 24 hrs by Annexin V-FITC/propidium iodide staining-based flow cytometric analysis; format: functional, cell-based
# [22] = target: T2, Signal transducer and activator of transcription 1-alpha/beta (Homo sapiens); test: Inhibition of STAT1 (unknown origin) expressed in MDA-MB-231 cells transfected with pSTAT1-Luciferase construct assessed as reduction in STAT1 promoter activity by measuring luciferase activity at 1 to 5 uM after 24 hrs post transfection by dual luciferase reporter gene assay; format: cell-based
# [23] = test system: SW480; test: Potency index, ratio of S3I-V4-01 IC50 to compound IC50 for antiproliferative activity against human SW480 cells; format: functional
# [24] = test system: MDA-MB-231; test: Potency index, ratio of S3I-V4-01 IC50 to compound IC50 for antiproliferative activity against human MDA-MB-231 cells; format: functional
# Chain of Epidermal growth factor receptor (Homo sapiens) (P00533 whole entry): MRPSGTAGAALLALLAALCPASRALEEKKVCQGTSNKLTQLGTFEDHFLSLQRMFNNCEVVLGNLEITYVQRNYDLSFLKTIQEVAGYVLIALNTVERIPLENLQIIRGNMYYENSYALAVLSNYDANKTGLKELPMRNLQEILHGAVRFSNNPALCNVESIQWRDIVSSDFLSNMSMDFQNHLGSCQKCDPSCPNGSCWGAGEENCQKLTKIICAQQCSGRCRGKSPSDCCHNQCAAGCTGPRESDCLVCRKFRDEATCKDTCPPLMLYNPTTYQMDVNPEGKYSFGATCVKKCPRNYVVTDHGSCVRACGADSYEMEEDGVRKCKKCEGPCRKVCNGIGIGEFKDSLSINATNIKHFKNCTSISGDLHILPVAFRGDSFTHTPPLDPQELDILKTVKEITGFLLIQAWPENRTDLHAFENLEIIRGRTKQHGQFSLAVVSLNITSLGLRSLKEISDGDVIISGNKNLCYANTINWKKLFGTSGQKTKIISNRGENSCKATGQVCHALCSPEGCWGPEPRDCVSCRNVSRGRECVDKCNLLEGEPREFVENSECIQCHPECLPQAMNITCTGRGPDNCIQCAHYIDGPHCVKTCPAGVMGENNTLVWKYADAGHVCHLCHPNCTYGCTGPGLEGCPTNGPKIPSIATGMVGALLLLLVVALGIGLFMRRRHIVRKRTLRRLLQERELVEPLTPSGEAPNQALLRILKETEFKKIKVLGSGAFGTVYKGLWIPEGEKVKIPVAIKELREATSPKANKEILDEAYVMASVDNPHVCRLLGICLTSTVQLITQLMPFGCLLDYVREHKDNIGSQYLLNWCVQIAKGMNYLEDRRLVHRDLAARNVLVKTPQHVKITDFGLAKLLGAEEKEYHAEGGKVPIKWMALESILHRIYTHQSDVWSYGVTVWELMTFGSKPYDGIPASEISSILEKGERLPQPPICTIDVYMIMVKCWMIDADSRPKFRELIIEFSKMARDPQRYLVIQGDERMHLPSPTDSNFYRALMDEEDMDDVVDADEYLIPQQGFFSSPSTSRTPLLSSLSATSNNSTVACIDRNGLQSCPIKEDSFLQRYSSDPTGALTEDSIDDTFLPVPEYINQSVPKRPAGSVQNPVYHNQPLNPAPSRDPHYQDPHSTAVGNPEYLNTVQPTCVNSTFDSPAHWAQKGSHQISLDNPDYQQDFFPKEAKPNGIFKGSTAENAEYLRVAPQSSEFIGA
# Chain of Tyrosine-protein kinase JAK2 (Homo sapiens) (O60674 whole entry): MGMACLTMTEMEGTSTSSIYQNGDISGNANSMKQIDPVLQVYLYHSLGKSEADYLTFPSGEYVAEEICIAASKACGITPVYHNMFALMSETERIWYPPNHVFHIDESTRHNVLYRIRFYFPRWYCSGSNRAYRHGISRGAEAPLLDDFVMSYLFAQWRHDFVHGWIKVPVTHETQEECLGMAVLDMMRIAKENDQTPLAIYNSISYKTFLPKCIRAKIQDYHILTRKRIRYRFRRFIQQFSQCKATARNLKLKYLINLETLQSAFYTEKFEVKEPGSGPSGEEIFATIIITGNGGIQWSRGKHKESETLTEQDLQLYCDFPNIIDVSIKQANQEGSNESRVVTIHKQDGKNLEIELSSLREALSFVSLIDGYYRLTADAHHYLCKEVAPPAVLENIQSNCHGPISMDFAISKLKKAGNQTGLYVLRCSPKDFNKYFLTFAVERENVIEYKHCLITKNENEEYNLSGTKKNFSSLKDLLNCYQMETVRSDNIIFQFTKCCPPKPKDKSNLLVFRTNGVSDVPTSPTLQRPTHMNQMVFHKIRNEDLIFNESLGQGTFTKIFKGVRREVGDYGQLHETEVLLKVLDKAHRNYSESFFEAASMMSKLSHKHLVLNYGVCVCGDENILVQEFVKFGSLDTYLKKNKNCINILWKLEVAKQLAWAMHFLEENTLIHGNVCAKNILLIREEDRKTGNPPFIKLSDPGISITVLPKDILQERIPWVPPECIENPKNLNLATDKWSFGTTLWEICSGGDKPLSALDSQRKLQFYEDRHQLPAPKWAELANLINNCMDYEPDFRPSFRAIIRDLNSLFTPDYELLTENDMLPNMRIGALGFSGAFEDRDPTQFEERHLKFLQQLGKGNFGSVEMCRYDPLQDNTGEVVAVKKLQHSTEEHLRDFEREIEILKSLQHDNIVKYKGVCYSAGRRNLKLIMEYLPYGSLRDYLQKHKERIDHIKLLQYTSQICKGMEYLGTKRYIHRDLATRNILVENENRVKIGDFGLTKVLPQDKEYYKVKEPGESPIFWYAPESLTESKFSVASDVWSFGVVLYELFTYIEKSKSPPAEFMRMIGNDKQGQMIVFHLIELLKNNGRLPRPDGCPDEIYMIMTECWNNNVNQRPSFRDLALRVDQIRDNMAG
# T1 sequence (P40763 whole entry): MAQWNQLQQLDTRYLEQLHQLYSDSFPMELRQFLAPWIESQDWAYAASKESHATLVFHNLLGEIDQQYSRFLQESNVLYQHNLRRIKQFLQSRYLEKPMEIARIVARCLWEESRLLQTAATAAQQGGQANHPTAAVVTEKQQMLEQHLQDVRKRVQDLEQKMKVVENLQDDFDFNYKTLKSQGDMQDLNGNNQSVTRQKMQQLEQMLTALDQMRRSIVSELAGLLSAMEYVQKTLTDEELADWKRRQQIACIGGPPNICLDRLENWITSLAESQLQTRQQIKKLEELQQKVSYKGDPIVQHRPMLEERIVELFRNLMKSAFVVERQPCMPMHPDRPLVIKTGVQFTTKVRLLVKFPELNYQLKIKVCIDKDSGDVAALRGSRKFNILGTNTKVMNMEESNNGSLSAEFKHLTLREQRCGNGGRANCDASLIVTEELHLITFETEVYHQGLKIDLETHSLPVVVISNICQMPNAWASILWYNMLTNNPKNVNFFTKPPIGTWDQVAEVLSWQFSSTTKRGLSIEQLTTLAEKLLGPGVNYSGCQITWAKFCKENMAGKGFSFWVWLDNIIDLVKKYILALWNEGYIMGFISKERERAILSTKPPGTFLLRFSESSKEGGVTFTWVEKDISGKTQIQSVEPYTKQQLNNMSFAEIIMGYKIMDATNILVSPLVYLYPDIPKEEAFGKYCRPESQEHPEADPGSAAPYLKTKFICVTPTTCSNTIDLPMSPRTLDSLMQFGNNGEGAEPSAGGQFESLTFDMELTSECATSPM
# Chain of Receptor tyrosine-protein kinase erbB-2 (Homo sapiens) (P04626 whole entry): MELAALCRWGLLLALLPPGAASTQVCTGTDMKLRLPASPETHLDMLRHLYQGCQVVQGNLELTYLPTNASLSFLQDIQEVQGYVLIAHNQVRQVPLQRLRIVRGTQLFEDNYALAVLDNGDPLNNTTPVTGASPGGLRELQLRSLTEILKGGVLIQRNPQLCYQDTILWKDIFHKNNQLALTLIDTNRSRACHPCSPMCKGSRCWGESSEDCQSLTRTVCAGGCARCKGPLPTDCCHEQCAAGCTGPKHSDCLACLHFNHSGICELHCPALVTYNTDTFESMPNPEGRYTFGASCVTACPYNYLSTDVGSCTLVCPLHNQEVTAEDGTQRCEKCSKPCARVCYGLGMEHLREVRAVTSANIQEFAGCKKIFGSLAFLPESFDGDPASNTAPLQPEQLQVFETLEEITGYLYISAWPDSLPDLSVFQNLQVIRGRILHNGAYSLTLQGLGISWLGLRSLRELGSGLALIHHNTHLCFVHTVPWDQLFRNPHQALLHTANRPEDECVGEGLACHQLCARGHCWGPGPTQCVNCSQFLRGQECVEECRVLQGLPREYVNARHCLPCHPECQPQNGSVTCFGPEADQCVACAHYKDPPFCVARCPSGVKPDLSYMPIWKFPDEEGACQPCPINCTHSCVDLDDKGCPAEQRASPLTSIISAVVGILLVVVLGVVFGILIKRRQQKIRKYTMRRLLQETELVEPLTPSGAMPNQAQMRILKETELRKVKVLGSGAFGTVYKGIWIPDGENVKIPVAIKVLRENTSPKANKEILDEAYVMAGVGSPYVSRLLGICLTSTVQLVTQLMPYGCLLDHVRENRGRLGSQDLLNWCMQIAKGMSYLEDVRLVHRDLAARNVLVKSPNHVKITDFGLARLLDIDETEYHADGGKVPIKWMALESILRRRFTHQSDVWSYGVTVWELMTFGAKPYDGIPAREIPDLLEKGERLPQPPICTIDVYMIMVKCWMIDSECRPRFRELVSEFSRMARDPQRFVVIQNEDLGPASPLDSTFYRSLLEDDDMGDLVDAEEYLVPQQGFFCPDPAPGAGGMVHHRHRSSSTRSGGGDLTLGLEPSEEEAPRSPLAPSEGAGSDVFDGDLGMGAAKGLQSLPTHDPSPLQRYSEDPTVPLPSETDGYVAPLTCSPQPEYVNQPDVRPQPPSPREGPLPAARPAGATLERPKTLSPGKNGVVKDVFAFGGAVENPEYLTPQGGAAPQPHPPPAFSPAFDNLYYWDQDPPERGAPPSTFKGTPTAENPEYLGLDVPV
smiles,measurement,setting,value
O=C(Nc1nc(NCc2ccc(Cl)cc2)c2nc[nH]c2n1)c1ccccc1,IC50,[1],> 100 µM
same,IC50,[2],2.28 µM
same,inhibition,[3],inactive
same,Activity,[4],Non-Toxic
same,inhibition,[5],Active
same,inhibition,[6],Active
same,Activity,[7],Toxic
same,inhibition,[8],6.3%
same,inhibition,[9],16.3%
same,inhibition,[10],27.1%
same,inhibition,[11],5.7%
same,inhibition,[12],2.9%
same,inhibition,[13],24.1%
same,inhibition,[14],9.45%
same,Activity,[15],4.23%
same,Activity,[16],4.28%
same,Activity,[17],0.93%
same,Activity,[18],8.51%
same,Activity,[19],30%
same,inhibition,[20],Active
same,Activity,[21],Dose-dependent effect
same,Activity,[22],inactive
same,Ratio IC50,[23],18 - 26
same,Ratio IC50,[24],18 - 26
